Earlier results as cited in patent publication US20080095865A1, “COMPOSITION AND METHOD FOR INCREASING LEAN MUSCLE MASS, DECREASING MUSCLE LOSS, INCREASING MUSCLE STRENGTH AND IMPROVING ATHLETIC PERFORMANCE” (APLODAN FORMULATIONS LTD., priority 2004, published 2008).

Experiments:
[1] = supplemented rats
[2] = hamster, in vivo
[3] = elderly subjects, compared to controls
[4] = unaffected in placebo group
[5] = as a supplement
[6] = patients with inadequate coronary blood flow

Row | Structure (SMILES) | age-related changes in mitochondrial function, accumulated oxidative damage and metabolic rate [1] | high-density lipoproteins [2] | increase of metabolic clearance rate of glucose (diabetics) [%] | body's utilization of blood sugar (type II diabetics) | muscular performance [3] | hand-grip strength [4] | tolerance and side effects [5] | cardiac parameters [6]
1 | O=C(O)CCCC[C@@H]1CCSS1 (stereo in doubt) [Alpha Lipoic Acid, 1,2-dithiolane-3-pentanoic acid] | improved | beneficial increase in high-density lipoproteins | 50 | significantly increase | – | – | – | –
2 | CN(CCOP(=O)(O)O)C(=N)N [Creatinol O-Phosphate] | – | – | – | – | improved muscular performance as compared to controls | improved | well tolerated and without side effects | successfully used to improve cardiac parameters
